Test results published in US6218406A, “Farnesyl transferase inhibitors, their preparation, the pharmaceutical compositions which contain them and their use in the preparation of medicaments” (Aventis Pharma S.A., priority 1996, dated 2001).
Where two headings read alike, the source gives them in different places.

Target: farnesyl transferase (Homo sapiens, UniProt P49354+P49356)
Assay: Farnesyl transferase inhibition, [3H]-farnesylation of biotinylated K-ras C-terminal peptide (SPA assay)
Type: biochemical
Conditions: 60 min at 37° C., mean of two IC50 values
Procedure: The farnesyl transferase activity was measured by the amount farnesylated of K-ras substrate or of substrate derived from the peptide corresponding to its C-terminal part, the farnesyl group being introduced by farnesyl pyrophosphate (FPP).
It was then brought into contact with PVT-streptavidin (Amersham)® beads and was quantified by proximity scintillation (SPA assay) between the tritium and the PVT beads, by virtue of the streptavidin/biotin interaction.
Experimentally, farnesyl transferase purified according to the appended protocol was diluted, for this assay, to a concentration such that a consumption of substrates of less than 30% was obtained.
The reaction, carried out in Optiplates 96° microtitration plates, was initiated by the enzyme and lasted sixty minutes at 37° C. It was stopped by addition of 150 μl of mixture of a blocking buffer at pH 4 composed of 0.2M H3 PO4, 1.5 mM MgCl2, 0.5% (w/v) BSA, 0.05% (w/v) sodium azide containing 200 μg of PVT-streptavidin beads.
After slow agitation for thirty minutes (in order to remove the chemiluminescence), the plates were read as [^3 H]CPM in a Top Count® (Packard) scintillation counter for microplates, where they were converted into [^3 H]DPM from a range of coloured agent attenuating the scintillation (quenching).
The percentages of inhibition were calculated with respect to an inhibitor-free control after subtraction from all the values of that of a blank which only contained the substrates and the buffer.
The IC50 values were calculated or measured, from the inhibitions obtained at nine different concentrations, with Enzfitter® or Grafit® software. The IC50 values which appear in the results are the mean of measurements and calculations of two IC50 values.

[1] = K-Ras substrate, read-out: In vitro inhibitory activity (K-Ras) IC50

Compound	IC50 [1]	IC50 (In vitro inhibitory activity (K-Ras) IC50, K-Ras substrate)
C=C(C(=O)N1C[C@@H]2[C@]3(c4ccc(C(F)(F)F)cc4)CC[C@@H](c4ccccc43)[C@]2(C(=O)O)C1)c1ccccc1OC (racemic) [Example 40, (3aRS,4SR,9SR,9aRS)-4,9-ethano-2-[2-(2-methoxyphenyl)propenoyl]-9-[4-(trifluoromethyl)phenyl]-2,3,3a,4,9,9a-hexahydro-1H-benzo[f]isoindole-3a-carboxylic Acid]	0.083 µM	–
C=C(C(=O)N1C[C@H]2[C@@]3(c4ccc(C)cc4)CC[C@H](c4c(OC)cccc43)[C@@]2(C(=O)O)C1)c1ccccc1OC (single isomer, unassigned) [Example 100, Dextrorotatory Enantiomer of (3aRS,4SR,9SR,9aRS)-4,9-ethano-5-methoxy-2-[2-(2-methoxyphenyl)propenoyl]-9-(4-methylphenyl)-2,3,3a,4,9,9a-hexahydro-1H-benzo[f]isoindole-3a-carboxylic Acid]	< 0.019 µM	–
C=C(C(=O)N1C[C@@H]2[C@]3(c4ccccc4C)CC[C@@H](c4ccccc43)[C@]2(C(=O)O)C1)c1ccccc1OC (racemic) [Example 38, (3aRS,4SR,9SR,9aRS)-4,9-ethano-2-[2-(2-methoxyphenyl)propenoyl]-9-(2-methylphenyl)-2,3,3a,4,9,9a-hexahydro-1H-benzo[f]isoindole-3a-carboxylic Acid]	0.099 µM	–
C=C(C(=O)N1C[C@@H]2[C@]3(c4ccc(Br)cc4)CC[C@@H](c4ccccc43)[C@]2(C(=O)O)C1)c1ccccc1OC (racemic) [Example 50, (3aRS,4SR,9SR,9aRS)-9-(4-bromophenyl)-4,9-ethano-2-[2-(2-methoxyphenyl)propenoyl]-2,3,3a,4,9,9a-hexahydro-1H-benzo[f]isoindole-3a-carboxylic Acid]	0.059 µM	–
C=C(C(=O)N1C[C@@H]2[C@]3(c4ccc5c(c4)OCO5)CC[C@@H](c4ccccc43)[C@]2(C(=O)O)C1)c1ccccc1OC (racemic) [Example 70, (3aRS,4SR,9SR,9aRS)-9-(1,3-benzodioxol-5-yl)-4,9-ethano-2-[2-(2-methoxyphenyl)propenoyl]-2,3,3a,4,9,9a-hexahydro-1H-benzo[f]isoindole-3a-carboxylic Acid]	0.067 µM	–
C=C(C(=O)N1C[C@@H]2[C@@]3(c4ccsc4)CC[C@@H](c4ccccc43)[C@]2(C(=O)O)C1)c1ccccc1OC (racemic) [Example 58, (3aRS,4SR,9SR,9aRS)-4,9-ethano-2-[2-(2-methoxyphenyl)propenoyl]-9-(3-thienyl)-2,3,3a,4,9,9a-hexahydro-1H-benzo[f]isoindole-3a-carboxylic Acid]	–	0.138 µM
C=C(C(=O)N1C[C@@H]2[C@]3(c4ccc(OC)cc4)CC[C@@H](c4ccccc43)[C@]2(C(=O)O)C1)c1ccccc1OC (racemic) [Example 74, (3aRS,4SR,9SR,9aRS)-4,9-ethano-9-(4-methoxyphenyl)-2-[2-(2-methoxyphenyl)propenoyl]-2,3,3a,4,9,9a-hexahydro-1H-benzo[f]isoindole-3a-carboxylic Acid]	0.048 µM	–
C=C(C(=O)N1C[C@@H]2[C@]3(c4ccc(C#N)cc4)CC[C@@H](c4ccccc43)[C@]2(C(=O)O)C1)c1ccccc1OC (racemic) [Example 95, (3aRS,4SR,9SR,9aRS)-9-(4-cyanophenyl)-4,9-ethano-2-[2-(2-methoxyphenyl)propenoyl]-2,3,3a,4,9,9a-hexahydro-1H-benzo[f]isoindole-3a-carboxylic Acid]	0.177 µM	–
C=C(C(=O)N1C[C@H]2[C@@]3(c4ccc5c(c4)OCCO5)CC[C@H](c4ccccc43)[C@@]2(C(=O)NCc2cccnc2)C1)c1ccccc1OC (single isomer, unassigned) [Example 34, dextrorotatory enantiomer of (3aRS,4SR,9SR,9aRS)-9-(2,3-dihydro-1,4-benzodioxin-6-yl)-4,9-ethano-2-[2-(2-methoxyphenyl)propenoyl]-2,3,3a,4,9,9a-hexahydro-1H-benzo[f]isoindole-3a-N-(3-pyridylmethyl)carboxamide]	< 0.02 µM	–
C=C(C(=O)N1C[C@H]2[C@@]3(c4ccc(C)cc4)CC[C@H](c4ccccc43)[C@@]2(C(=O)O)C1)c1ccccc1OC (single isomer, unassigned) [Example 4, laevorotatory enantiomer of (3aRS,4SR,9RS,9aRS)-4,9-ethano-2-[2-(2-methoxyphenyl)propenoyl]-9-(4-methylphenyl)-2,3,3a,4,9,9a-hexahydro-1H-benzo[f]isoindole-3a-carboxylic acid]	1.8 µM	–
C=C(C(=O)N1C[C@@H]2[C@]3(c4ccc(C)cc4)CC[C@@H](c4ccccc43)[C@]2(C(=O)NS(=O)(=O)c2ccccc2)C1)c1ccccc1OC (racemic) [Example 25, (3aRS,4SR,9SR,9aRS)-4,9-ethano-2-[2-(2-methoxyphenyl)propenoyl]-9-(4-methylphenyl)-3a-phenylsulphonylaminocarbonyl-2,3,3a,4,9,9a-hexahydro-1H-benzo[f]isoindole]	0.193 µM	–
C=C(C(=O)N1C[C@@H]2[C@]3(c4ccc(F)cc4)CC[C@@H](c4ccccc43)[C@]2(C(=O)OC)C1)c1ccccc1OC (racemic) [Example 64, methyl (3aRS,4SR,9SR,9aRS)-4,9-ethano-9-(4-fluorophenyl)-2-[2-(2-methoxyphenyl)propenoyl]-2,3,3a,4,9,9a-hexahydro-1H-benzo[f]isoindole-3a-carboxylate]	0.325 µM	–
C=C(C(=O)N1C[C@@H]2[C@]3(c4cccc(C)c4)CC[C@@H](c4ccccc43)[C@]2(C(=O)O)C1)c1ccccc1OC (racemic) [Example 69, (3aRS,4SR,9SR,9aRS)-4,9-ethano-2-[2-(2-methoxyphenyl)propenoyl]-9-(3-methylphenyl)-2,3,3a,4,9,9a-hexahydro-1H-benzo[f]isoindole-3a-carboxylic Acid]	0.053 µM	–
C=C(C(=O)N1C[C@H]2[C@@]3(c4ccc5c(c4)OCCO5)CC[C@H](c4ccccc43)[C@@]2(C(=O)NCc2cccnc2)C1)c1ccccc1OC (relative stereo) [Example 33, (3aRS,4SR,9SR,9aRS)-9-(2,3-dihydro-1,4-benzodioxin-6-yl)-4,9-ethano-2-[2-(2-methoxyphenyl)propenoyl]-2,3,3a,4,9,9a-hexahydro-1H-benzo[f]isoindole-3a-N-(3-pyridylmethyl)carboxamide]	0.242 µM	–
C=C(C(=O)N1C[C@@H]2[C@]3(c4ccc(C(F)(F)F)cc4)CC[C@@H](c4ccccc43)[C@]2(C(=O)O)C1)c1ccccc1OC (single isomer, unassigned) [Example 41, dextrorotatory enantiomer of (3aRS,4SR,9SR,9aRS)-4,9-ethano-2-[2-(2-methoxyphenyl)propenoyl]-9-[4-(trifluoromethyl)phenyl]-2,3,3a,4,9,9a-hexahydro-1H-benzo[f]isoindole-3a-carboxylic Acid]	0.009 µM	–
C=C(C(=O)N1C[C@@H]2[C@]3(c4ccc(Cl)c(Cl)c4)CC[C@@H](c4ccccc43)[C@]2(C(=O)O)C1)c1ccccc1OC (racemic) [Example 51, (3aRS,4SR,9SR,9aRS)-9-(3,4-dichlorophenyl)-4,9-ethano-2-[2-(2-methoxyphenyl)-propenoyl]-2,3,3a,4,9,9a-hexahydro-1H-benzo[f]isoindole-3a-carboxylic Acid]	0.068 µM	–
C=C(C(=O)N1C[C@@H]2[C@]3(c4cccc(Cl)c4)CC[C@@H](c4ccccc43)[C@]2(C(=O)OC)C1)c1ccccc1OC (racemic) [Example 88, methyl (3aRS,4SR,9SR,9aRS)-9-(3-chlorophenyl)-4,9-ethano-2-[2-(2-methoxyphenyl)propenoyl]-2,3,3a,4,9,9a-hexahydro-1H-benzo[f]isoindole-3a-carboxylate]	0.404 µM	–
COc1ccccc1CC(=O)N1C[C@@H]2[C@]3(c4ccc(C(C)C)cc4)CC[C@@H](c4ccccc43)[C@]2(C(=O)O)C1 (racemic) [Example 56, (3aRS,4SR,9SR,9aRS)-4,9-ethano-9-(4-isopropylphenyl)-2-[(2-methoxyphenyl)acetyl]-2,3,3a,4,9,9a-hexahydro-1H-benzo[f]isoindole-3a-carboxylic Acid]	0.589 µM	–
COc1ccccc1CC(=O)N1C[C@@H]2[C@]3(c4ccc(C)c(C)c4)CC[C@@H](c4ccccc43)[C@]2(C(=O)O)C1 (racemic) [Example 12, (3aRS,4SR,9SR,9aRS)-9-(3,4-dimethyl-phenyl)-4,9-ethano-2-[(2-methoxyphenyl)acetyl]-2,3,3a,4,9,9a-hexahydro-1H-benzo[f]isoindole-3a-carboxylic Acid]	0.045 µM	–
C=C(C(=O)N1C[C@H]2[C@@]3(c4ccc(OC)cc4)CC[C@H](c4ccccc43)[C@@]2(C(=O)NNc2ccccc2)C1)c1ccccc1OC (relative stereo) [Example 77, (3aRS,4SR,9SR,9aRS)-4,9-ethano-9-(4-methoxyphenyl)-2-[2-(2-methoxyphenyl)propenoyl]-2,3,3a,4,9,9a-hexahydro-1H-benzo[f]isoindole-3a-N'-phenylcarbohydrazide]	0.204 µM	–
